Active and inactive are the calls of the source.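 Rule for the calls: active = a tumour-causing dose and a tumour site recorded for mice in at least one sex group; inconclusive = only government mouse studies exist and were judged inadequate; inactive = mouse studies exist but none gave tumours.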
System: mouse carcinogenicity bioassay, TD50 from CPDB
Experiment: DSSTox (CPDBAS) Carcinogenic Potency Database Summary Mouse Bioassay Results
Procedure, shortened: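 Chronic long-term mouse cancer bioassays from literature and NCI/NTP, compiled per sex. TD50 is the standardized carcinogenic potency, using the most positive experiment per sex-species; target sites follow author opinion.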

[1] = TD50_Mouse_Note: no positive results, TargetSites_Mouse_Female: no positive results
[2] = TD50_Mouse_Note: TD50 is harmonic mean of more than one positive test, TargetSites_Mouse_Female: lung
[3] = TD50_Mouse_Note: positive test results only by intraperitoneal or intravenous injection, TargetSites_Mouse_Female: peritoneal cavity
[4] = TD50_Mouse_Note: TD50 is harmonic mean of more than one positive test, TargetSites_Mouse_Female: liver, lung, stomach
[5] = TD50_Mouse_Note: TD50 is harmonic mean of more than one positive test, TargetSites_Mouse_Female: thyroid gland
[6] = TD50_Mouse_Note: TD50 is harmonic mean of more than one positive test, TargetSites_Mouse_Female: liver
[7] = TargetSites_Mouse_Female: liver
[8] = TargetSites_Mouse_Female: no positive results

SMILES | outcome [1] | further results
O=S(=O)(O)c1ccc(N=Nc2c(O)ccc3cc(S(=O)(=O)O)ccc23)cc1 | inactive; no positive results | –
O=CNNC=O | – | Potency [2]: 7.59 mmol/kg/day
Cc1ccc(/C(=C\CN2CCCC2)c2ccccn2)cc1 | inactive; no positive results | –
CN(C)/N=N/c1nc[nH]c1C(N)=O | – | Potency (TD50_Mouse_Note: positive test results only by intraperitoneal or intravenous injection, TD50 is harmonic mean of more than one positive, TargetSites_Mouse_Female: hematopoietic system, lung, uterus, vascular system): 0.0053 mmol/kg/day
c1ccc2c(c1)Oc1ccccc1O2 | inactive; no positive results | –
ClCOCCOCCl | – | Potency [3]: 0.0291 mmol/kg/day
CCOC(=O)CC(SP(=S)(OC)OC)C(=O)OCC (stereo unspecified) | inactive; no positive results | –
CCN(CC)C(=S)SSC(=S)N(CC)CC | inactive; no positive results | –
CC(I)C1OCC(CO)O1 (stereo unspecified) | – | Potency (TargetSites_Mouse_Female: harderian gland, pituitary gland): 0.535 mmol/kg/day
c1ccc2occc2c1 | – | Potency [4]: 0.212 mmol/kg/day
C1COCCO1 | – | Potency (TD50_Mouse_Note: TD50 is harmonic mean of more than one positive test, greater than ten-fold variation among TD50 values for positive res, TargetSites_Mouse_Female: liver): 2.32 mmol/kg/day
CC(CN1c2ccccc2Sc2ccccc21)N(C)C (stereo unspecified) | inactive; no positive results | –
C=C(C)[C@H]1Cc2c(ccc3c2O[C@@H]2COc4cc(OC)c(OC)cc4[C@@H]2C3=O)O1 | inactive; no positive results | –
Cc1cc(C)nc(NS(=O)(=O)c2ccc(N)cc2)n1 | – | Potency [5]: 5.43 mmol/kg/day
CCNc1nc(Cl)nc(NC(C)C)n1 | inactive; no positive results | –
COC(=O)C1=C(C)NC(C)=C(C(=O)OCCN2CCN(C(c3ccccc3)c3ccccc3)CC2)C1c1cccc([N+](=O)[O-])c1 (stereo unspecified) | inactive; no positive results | –
ClCC(Cl)(Cl)Cl | – | Potency [6]: 1.08 mmol/kg/day
CC(C)(C)c1cc(O)ccc1O | inactive; no positive results | –
CC(=O)N(O)c1ccc2c(c1)Cc1ccccc1-2 | – | Potency (TargetSites_Mouse_Female: esophagus, kidney, liver, stomach, urinary bladder): 0.026 mmol/kg/day
Cc1c(N)nc(C)c2c1[nH]c1ccccc12 | – | Potency [6]: 0.15 mmol/kg/day
ClCCCl | – | Potency (TD50_Mouse_Note: TD50 is harmonic mean of more than one positive test, TargetSites_Mouse_Female: liver, lung, mammary gland, uterus): 1.39 mmol/kg/day
O=C1OC(=O)c2ccccc21 | inactive; no positive results | –
CCCCCCc1ccc(O)cc1O | inactive; no positive results | –
NNc1ccc(C(=O)O)cc1 | inactive | Potency (TD50_Mouse_Note: TD50 is harmonic mean of more than one positive test, TargetSites_Mouse_Female: vascular system): 2.97 mmol/kg/day

SMILES | outcome [1] | further results
CCN(Cc1cccc(S(=O)(=O)O)c1)c1ccc(C(=C2C=CC(=[N+](CC)Cc3cccc(S(=O)(=O)[O-])c3)C=C2)c2ccc(S(=O)(=O)O)cc2)cc1 | inactive; no positive results | –
C=CCN=C=S | inactive; no positive results | –
Nc1ccc(-c2ccc(N)c(Cl)c2)cc1Cl | – | Potency (TD50_Mouse_Note: TD50 value is overestimated as upper 99% confidence limit from study with 100% tumor incidence but no lifetable, harmoni): 0.0377 mmol/kg/day
CC(=O)Nc1ccc(C(=O)CCl)cc1 | inactive; no positive results | –
O=[Se]=O | – | outcome (TD50_Mouse_Note: no positive results): inactive
Cc1cc(C)c(S(=O)(=O)O)cc1N=Nc1cc(S(=O)(=O)O)c2ccccc2c1O | – | outcome (TargetSites_Mouse_BothSexes: no positive results): inactive
ClCOCC(COCCl)OCCl | – | Potency [3]: 0.0145 mmol/kg/day
COP(=O)(OC)O/C(=C\Cl)c1cc(Cl)c(Cl)cc1Cl | – | Potency (TargetSites_Mouse_Female: no positive results - CPDB evaluation based on NCI Technical Report): 0.623 mmol/kg/day
CCn1cc(C(=O)O)c(=O)c2ccc(C)nc21 | inactive; no positive results | –
[CH3][Hg][Cl] | – | Potency (TD50_Mouse_Note: TD50 is harmonic mean of more than one positive test, TargetSites_Mouse_Female: no positive results): 0.00578 mmol/kg/day
Brc1cc(Br)c(-c2c(Br)c(Br)c(Br)c(Br)c2Br)c(Br)c1Br | – | Potency [6]: 0.00418 mmol/kg/day
O | inactive; no positive results | –
OCc1ccccc1 | inactive; no positive results | –
CCCCNN | – | Potency [2]: 0.0971 mmol/kg/day
O1[As]2O[As]3O[As]1O[As](O2)O3 | inactive; no positive results | –
NC(=O)CCCCC(N)=O | inactive; no positive results | –
ClCOCCl | – | Potency (TD50_Mouse_Note: TD50 is harmonic mean of more than one positive test, TargetSites_Mouse_Female: peritoneal cavity): 0.00158 mmol/kg/day
Cc1ccc(N=Nc2c(O)c(S(=O)(=O)O)cc3ccc(S(=O)(=O)O)cc23)c(C)c1 | – | Potency [6]: 1.49 mmol/kg/day
ClC(Br)Br | – | Potency [7]: 0.667 mmol/kg/day
NC(=O)OCC(COC(N)=O)c1ccccc1 | – | Potency [6]: 31.1 mmol/kg/day
Brc1cc(Br)c(-c2cc(Br)c(Br)cc2Br)cc1Br | – | Potency [6]: 0.000529 mmol/kg/day
COC(C)(C)C | – | Potency [7]: 74.3 mmol/kg/day
COC(=O)[C@H]1[C@H]2C[C@@H]3c4[nH]c5cc(OC)ccc5c4CCN3C[C@H]2C[C@@H](OC(=O)c2cc(OC)c(OC)c(OC)c2)[C@@H]1OC | – | Potency (TD50_Mouse_Note: TD50 is harmonic mean of more than one positive test, TargetSites_Mouse_Female: mammary gland): 0.00825 mmol/kg/day
CCc1cc(C(N)=S)ccn1 | – | Potency (TargetSites_Mouse_Female: thyroid gland): 0.417 mmol/kg/day

SMILES | outcome [1] | further results
CNc1ccc(N(CCO)CCO)cc1[N+](=O)[O-] | – | Potency [6]: 0.308 mmol/kg/day; Potency (TD50_Mouse_Note: TD50 is harmonic mean of more than one positive test, harmonic mean of TD50 includes a value for upper 99% confidence li, TargetSites_Mouse_Female: liver): 0.338 mmol/kg/day
ClC(Cl)(Cl)Cl | – | Potency (TD50_Mouse_Note: TD50 is harmonic mean of more than one positive test, greater than ten-fold variation among TD50 values for positive res, TargetSites_Mouse_Female: adrenal gland, liver): 0.218 mmol/kg/day
CN(C)CCO | inactive | –
O=C(Nc1ccc([N+](=O)[O-])cc1Cl)c1cc(Cl)ccc1O | inactive; ntp bioassay inadequate | –
Cc1c(COC(=O)C2C(/C=C(\Cl)C(F)(F)F)C2(C)C)cccc1-c1ccccc1 (stereo unspecified) | inactive; no positive results | –
Cc1ccccc1N | – | Potency (TD50_Mouse_Note: TD50 is harmonic mean of more than one positive test, TargetSites_Mouse_Female: liver, vascular system): 5.85 mmol/kg/day
CC(=O)C1C(=O)C=C(C)OC1=O (stereo unspecified) | inactive; no positive results | –
O=C(O)CCl | inactive; no positive results | –
O=S(=O)([O-])[O-].[Cd+2] | inactive | –
COP(=O)(OC)OC | – | Potency (TargetSites_Mouse_Female: uterus): 2.39 mmol/kg/day
Clc1ccc2c(c1)Oc1ccc(Cl)cc1O2 | inactive; no positive results | –
OCC1CO1 (stereo unspecified) | – | Potency (TD50_Mouse_Note: TD50 is harmonic mean of more than one positive test, TargetSites_Mouse_Female: harderian gland, mammary gland, skin, subcutaneous tissue, uterus): 0.468 mmol/kg/day
O=C1CCC(=O)O1 | inactive; no positive results | –
CCCCOC(=O)c1ccc(O)cc1 | inactive; no positive results | –
O=c1cc[nH]c(=O)[nH]1 | – | Potency (TD50_Mouse_Note: TD50 is harmonic mean of more than one positive test, greater than ten-fold variation among TD50 values for positive res, TargetSites_Mouse_Female: urinary bladder): 24.5 mmol/kg/day
C=CC(=O)NCO | – | Potency (TD50_Mouse_Note: TD50 is harmonic mean of more than one positive test, TargetSites_Mouse_Female: harderian gland, liver, lung, ovary): 0.263 mmol/kg/day
Nc1ccc2c(c1)C(=O)c1ccccc1C2=O | – | Potency (TD50_Mouse_Note: TD50 is harmonic mean of more than one positive test, TargetSites_Mouse_Female: hematopoietic system, liver): 5.33 mmol/kg/day
CN(Cc1cnc2nc(N)nc(N)c2n1)c1ccc(C(=O)N[C@@H](CCC(=O)O)C(=O)O)cc1 | inactive; no positive results | –
CC1(C)[C@@H](OC2O[C@H](C(=O)O)[C@@H](O)[C@H](O)[C@H]2O[C@H]2O[C@H](C(=O)O)[C@@H](O)[C@H](O)[C@H]2O)CC[C@]2(C)[C@H]3C(=O)C=C4[C@@H]5C[C@@](C)(C(=O)O)CC[C@]5(C)CC[C@@]4(C)[C@]3(C)CC[C@@H]12 (stereo partly specified) | inactive; no positive results | –
ClCOCCCCCCOCCl | inactive | –
COc1ccc2nc(S(=O)Cc3ncc(C)c(OC)c3C)[nH]c2c1 (stereo unspecified) | inactive; no positive results | –
O=C1c2ccccc2-c2ccc3c4c(ccc1c24)-c1ccccc1C3=O | – | Potency [8]: 32.8 mmol/kg/day
Oc1ccc(Cl)cc1Cc1ccccc1 | – | Potency [8]: 6.17 mmol/kg/day
CBr | inactive; no positive results | –

SMILES | outcome [1] | further results
CC(COc1ccc(C(C)(C)C)cc1)OS(=O)OCCCl (stereo unspecified) | – | Potency [8]: 0.472 mmol/kg/day
CNNC | – | Potency (TD50_Mouse_Note: TD50 is harmonic mean of more than one positive test, harmonic mean of TD50 includes a value for upper 99% confidence li, TargetSites_Mouse_Female: lung, vascular system): 0.000857 mmol/kg/day
Cc1ccc(OP(=O)(Oc2ccc(C)cc2)Oc2ccc(C)cc2)cc1 | inactive; no positive results | –
COc1ccc(N)cc1N | – | Potency [5]: 3.83 mmol/kg/day
Nc1ccccc1-c1ccccc1 | – | Potency (TargetSites_Mouse_Female: vascular system): 5.45 mmol/kg/day
N#Cc1c(Cl)c(Cl)c(Cl)c(C#N)c1Cl | inactive; no positive results | –
CCC(C)c1cc([N+](=O)[O-])cc([N+](=O)[O-])c1O (stereo unspecified) | inactive; no positive results | –
CC1=NN(c2ccccc2)C(=O)C1 | inactive; no positive results | –
Nc1cccc(N)c1 | inactive; no positive results | –
C=C(C)C#N | inactive; no positive results | –
COP(=S)(OC)SCn1nnc2ccccc2c1=O | inactive; no positive results | –
C[C@]12CC[C@H](OS(=O)(=O)O)CC1=CC[C@@H]1[C@@H]2CC[C@]2(C)C(=O)CC[C@@H]12 | inactive; no positive results | –
Nc1ccc(Cc2ccc(N)c(Cl)c2)cc1Cl | – | Potency [7]: 0.196 mmol/kg/day
C=C(C)[C@H]1CC=C(C)C(=O)C1 | inactive; no positive results | –
NC1CCCCC1 | inactive; no positive results | –
CCCCC(CC)COC(=O)COc1ccc(Cl)cc1Cl (stereo unspecified) | inactive; no positive results | –
Nc1ccc(Oc2ccc(N)c(N)c2)cc1 | – | Potency: 0.0618 mmol/kg/day
CC(=O)NNc1ccc(CO)cc1 | – | Potency (TD50_Mouse_Note: TD50 is harmonic mean of more than one positive test, TargetSites_Mouse_Female: lung, vascular system): 1.34 mmol/kg/day
CC[C@H]1OC(=O)[C@H](C)[C@@H](O[C@H]2C[C@@](C)(OC)[C@@H](O)[C@H](C)O2)[C@H](C)[C@@H](O[C@@H]2O[C@H](C)C[C@H](N(C)C)[C@H]2O)[C@](C)(O)C[C@@H](C)C(=O)[C@H](C)[C@@H](O)[C@]1(C)O | inactive; no positive results | –
Cn1c(N)nc2c3cccnc3ccc21 | – | Potency [4]: 0.0989 mmol/kg/day
O=C1NCCN1 | inactive; no positive results | –
ClC(Cl)(Cl)c1ccccc1 | – | Potency (TargetSites_Mouse_Female: hematopoietic system, lung, stomach): 0.00203 mmol/kg/day
